Patent publication US10179782B2, “Substituted sulfonamide compounds” (Genentech, Inc., priority 2016, dated 2019)

Molecular target: T1, human TRPA1 (Homo sapiens, UniProt O75762)
T1 construct: expressed in transfected cells; host or cells: CHO cells
Experiment: TRPA1 FLIPR Tetra calcium influx assay in CHO cells (block of cinnamaldehyde-induced calcium influx)
Type: cell-based
Conditions: Table 2; CHO cells expressing TRPA1; agonist cinnamaldehyde 75 uM; 20 min compound incubation; Hill coefficient fixed to 1.5; read-out: hTRPA1 CHO Ca2+ AUC EVO (IC50)
Method in brief: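 IC50s were derived from a Hill fit with n fixed at 1.5, using inhibition of FLIPR Tetra calcium signals in dye-loaded TRPA1-CHO cells. Cells sat with compound 20 min at room temperature in HBSS with 20 mM HEPES (pH 7.4) and 0.02% BSA, then were challenged with cinnamaldehyde near EC80: 75 µM human, 45 µM rat.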

T1 sequence (O75762 whole entry): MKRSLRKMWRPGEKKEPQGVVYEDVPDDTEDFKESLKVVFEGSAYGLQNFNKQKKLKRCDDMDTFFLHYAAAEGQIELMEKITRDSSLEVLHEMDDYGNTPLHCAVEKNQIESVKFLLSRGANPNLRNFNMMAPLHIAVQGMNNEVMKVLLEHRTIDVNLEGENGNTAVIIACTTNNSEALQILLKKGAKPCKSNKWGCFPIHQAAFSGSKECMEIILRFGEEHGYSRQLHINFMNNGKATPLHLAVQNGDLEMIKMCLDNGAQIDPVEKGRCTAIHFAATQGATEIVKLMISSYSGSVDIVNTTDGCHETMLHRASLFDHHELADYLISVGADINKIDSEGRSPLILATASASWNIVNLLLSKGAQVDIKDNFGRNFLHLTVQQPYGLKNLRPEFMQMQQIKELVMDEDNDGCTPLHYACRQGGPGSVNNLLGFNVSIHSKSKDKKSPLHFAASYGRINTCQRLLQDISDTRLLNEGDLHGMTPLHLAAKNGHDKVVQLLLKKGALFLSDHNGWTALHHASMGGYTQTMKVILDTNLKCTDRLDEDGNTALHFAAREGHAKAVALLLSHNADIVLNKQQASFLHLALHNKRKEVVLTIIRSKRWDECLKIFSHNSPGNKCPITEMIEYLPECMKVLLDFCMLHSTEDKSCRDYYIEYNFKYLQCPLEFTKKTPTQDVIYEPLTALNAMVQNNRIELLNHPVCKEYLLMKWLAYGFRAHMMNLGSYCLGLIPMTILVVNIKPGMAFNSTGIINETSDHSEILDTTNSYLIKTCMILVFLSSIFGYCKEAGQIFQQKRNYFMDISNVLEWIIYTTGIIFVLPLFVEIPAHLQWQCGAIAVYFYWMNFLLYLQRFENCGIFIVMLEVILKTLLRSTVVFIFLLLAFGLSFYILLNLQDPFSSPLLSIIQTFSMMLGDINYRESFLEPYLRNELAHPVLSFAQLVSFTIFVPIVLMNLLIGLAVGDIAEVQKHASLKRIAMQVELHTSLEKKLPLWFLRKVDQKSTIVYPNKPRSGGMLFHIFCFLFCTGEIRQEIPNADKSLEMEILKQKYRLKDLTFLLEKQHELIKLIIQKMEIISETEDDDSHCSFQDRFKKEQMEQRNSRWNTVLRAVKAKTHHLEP

| Compound | IC50 [nM] |
| --- | --- |
| C[C@H]1[C@H](F)C[C@@H](C(=O)NCc2cc(-c3cnc(C(F)(F)F)nc3)ncc2F)N1S(=O)(=O)c1cc2ccccc2s1 [Example 98, (2S,4R,5S)-1-(benzothiophen-2-ylsulfonyl)-4-fluoro-N-[[5-fluoro-2-[2-(trifluoromethyl)pyrimidin-5-yl]-4-pyridyl]methyl]-5-methyl-pyrrolidine-2-carboxamide] | 5.61 |
| C[C@H]1[C@H](F)C[C@@H](C(=O)NCc2cc(-c3cnc(C(F)(F)F)nc3)ncc2F)N1S(=O)(=O)c1cc2cc(F)ccc2s1 [Example 99, (2S,4R,5S)-4-fluoro-1-(5-fluorobenzothiophen-2-yl)sulfonyl-N-[[5-fluoro-2-[2-(trifluoromethyl)pyrimidin-5-yl]-4-pyridyl]methyl]-5-methyl-pyrrolidine-2-carboxamide] | 9.67 |
| Cc1cnc(-c2cnc(C(F)(F)F)nc2)cc1CNC(=O)[C@@H]1C[C@@H](F)[C@H](C)N1S(=O)(=O)c1ccc(F)cc1 [Example 100, (2S,4R,5S)-4-fluoro-1-((4-fluorophenyl)sulfonyl)-5-methyl-N-((5-methyl-2-(2-(trifluoromethyl)pyrimidin-5-yl)pyridin-4-yl)methyl)pyrrolidine-2-carboxamide] | 12.7 |
| C[C@H]1[C@H](F)C[C@@H](C(=O)NCc2cc(-c3cnc(C(F)(F)F)nc3)ncc2C(F)F)N1S(=O)(=O)c1ccc(F)cc1 [Example 102, (2S,4R,5S)—N-((5-(difluoromethyl)-2-(2-(trifluoromethyl)pyrimidin-5-yl)pyridin-4-yl)methyl)-4-fluoro-1-(4-fluorophenylsulfonyl)-5-methylpyrrolidine-2-carboxamide] | 4.07 |
| C[C@H]1[C@H](F)C[C@@H](C(=O)NCc2cc(-c3cnc(C(F)(F)F)nc3)c(OC(F)(F)F)cn2)N1S(=O)(=O)c1ccc(F)cc1 [Example 106, (2S,4R,5S)-4-fluoro-1-(4-fluorophenyl)sulfonyl-5-methyl-N-[[5-(trifluoromethoxy)-4-[2-(trifluoromethyl)pyrimidin-5-yl]-2-pyridyl]methyl]pyrrolidine-2-carboxamide] | 2.2 |
| C[C@H]1[C@H](F)C[C@@H](C(=O)NCc2cc(-c3cnc(C(F)(F)F)nc3)c(C(F)(F)F)cn2)N1S(=O)(=O)c1ccc(F)cc1 [Example 107, (2S,4R,5S)-4-fluoro-1-(4-fluorophenyl)sulfonyl-5-methyl-N-[[5-(trifluoromethyl)-4-[2-(trifluoromethyl)pyrimidin-5-yl]-2-pyridyl]methyl]pyrrolidine-2-carboxamide] | 9.74 |
| C[C@H]1[C@H](F)C[C@@H](C(=O)NCc2cc(-c3cnc(C(F)(F)F)nc3)nc(C(F)(F)F)n2)N1S(=O)(=O)c1ccc(F)cc1 [Example 108, (2S,4R,5S)-4-fluoro-1-(4-fluorophenyl)sulfonyl-5-methyl-N-[[2-(trifluoromethyl)-6-[2-(trifluoromethyl)pyrimidin-5-yl]pyrimidin-4-yl]methyl]pyrrolidine-2-carboxamide] | 2 |
| C[C@H]1[C@H](F)C[C@@H](C(=O)NCc2cnc(C(F)(F)F)c(-c3cnc(C(F)(F)F)nc3)c2)N1S(=O)(=O)c1ccc(F)cc1 [Example 109, (2S,4R,5S)-4-fluoro-1-(4-fluorophenyl)sulfonyl-5-methyl-N-[[6-(trifluoromethyl)-5-[2-(trifluoromethyl)pyrimidin-5-yl]-3-pyridyl]methyl]pyrrolidine-2-carboxamide] | 16.9 |
| C[C@H]1[C@H](F)C[C@@H](C(=O)NCc2cc(-c3cnc(C(F)(F)F)nc3)cnc2C2CC2)N1S(=O)(=O)c1ccc(F)cc1 [Example 110, (2S,4R,5S)-N-[[2-cyclopropyl-5-[2-(trifluoromethyl)pyrimidin-5-yl]-3-pyridyl]methyl]-4-fluoro-1-(4-fluorophenyl)sulfonyl-5-methyl-pyrrolidine-2-carboxamide] | 10.6 |
| C[C@H]1[C@H](F)C[C@@H](C(=O)NCc2cc(-c3cnc(C(F)(F)F)cn3)ncc2C(F)(F)F)N1S(=O)(=O)c1ccc(F)cc1 [Example 112, (2S,4R,5 S)-4-fluoro-1-(4-fluorophenylsulfonyl)-5-methyl-N-((5-(trifluoromethyl)-2-(5-(trifluoromethyl)pyrazin-2-yl)pyridin-4-yl)methyl)pyrrolidine-2-carboxamide] | 1.94 |
| C[C@H]1[C@H](F)C[C@@H](C(=O)NCc2cc(-c3cnc(C(F)(F)F)nc3)nc(C(F)(F)F)c2)N1S(=O)(=O)c1ccc(F)cc1 [Example 113, (2S,4R,5S)-4-fluoro-1-(4-fluorophenyl)sulfonyl-5-methyl-N-[[2-(trifluoromethyl)-6-[2-(trifluoromethyl)pyrimidin-5-yl]-4-pyridyl]methyl]pyrrolidine-2-carboxamide] | 4.47 |
| C[C@H]1[C@H](F)C[C@@H](C(=O)NCc2cc(-c3ccc(OC(F)F)nc3)ncc2C(F)(F)F)N1S(=O)(=O)c1ccc(F)cc1 [Example 114, (2S,4R,5S)—N-([2-[6-(difluoromethoxy)pyridin-3-yl]-5-(trifluoromethyl)pyridin-4-yl]methyl)-4-fluoro-1-[(4-fluorobenzene)sulfonyl]-5-methylpyrrolidine-2-carboxamide] | 3.57 |
| C[C@H]1[C@H](F)C[C@@H](C(=O)NCc2cc(-c3cnc(C(F)(F)F)nc3)ncc2C(F)(F)F)N1S(=O)(=O)c1ccc(C#N)cc1 [Example 116, (2S,4R,5S)-1-(4-cyanophenyl)sulfonyl-4-fluoro-5-methyl-N-[[5-(trifluoromethyl)-2-[2-(trifluoromethyl)pyrimidin-5-yl]-4-pyridyl]methyl]pyrrolidine-2-carboxamide] | 5.75 |
| C[C@H]1[C@H](F)C[C@@H](C(=O)NCc2cc(-c3cnc(C(F)(F)F)nc3)c(F)cn2)N1S(=O)(=O)c1ccc(F)c(F)c1 [Example 118, (2S,4R,5S)-1-(3,4-difluorophenyl)sulfonyl-4-fluoro-N-[[5-fluoro-4-[2-(trifluoromethyl)pyrimidin-5-yl]-2-pyridyl]methyl]-5-methyl-pyrrolidine-2-carboxamide] | 2.29 |

The next compounds have a lower IC50 than those just listed; values first:

| IC50 [nM] | Compound |
| --- | --- |
| 1.75 | C[C@H]1[C@H](F)C[C@@H](C(=O)NCc2cc(-c3cnc(C(F)(F)F)nc3)ccc2C(F)(F)F)N1S(=O)(=O)c1ccc(F)cc1 [Example 111, (2S,4R,5S)-4-fluoro-1-(4-fluorophenyl)sulfonyl-5-methyl-N-[[2-(trifluoromethyl)-5-[2-(trifluoromethyl)pyrimidin-5-yl]phenyl]methyl]pyrrolidine-2-carboxamide] |
| 1.52 | C[C@H]1[C@H](F)C[C@@H](C(=O)NCc2cc(C(F)(F)F)nc(C3CC3)n2)N1S(=O)(=O)c1cc2cc(F)ccc2o1 [Example 120, (2S,4R,5S)-N-[[2-cyclopropyl-6-(trifluoromethyl)pyrimidin-4-yl]methyl]-4-fluoro-1-(5-fluorobenzofuran-2-yl)sulfonyl-5-methyl-pyrrolidine-2-carboxamide] |
| 1.34 | C[C@H]1[C@H](F)C[C@@H](C(=O)NCc2cc(-c3ccc(C(F)(F)F)nc3)ncc2C(F)(F)F)N1S(=O)(=O)c1ccc(F)cc1 [Example 115, (2S,4R,5S)-4-fluoro-1-(4-fluorophenyl)sulfonyl-5-methyl-N-[[5-(trifluoromethyl)-2-[6-(trifluoromethyl)-3-pyridyl]-4-pyridyl]methyl]pyrrolidine-2-carboxamide] |
| 1.09 | COc1nn(-c2cnc(C(F)(F)F)nc2)cc1CNC(=O)[C@@H]1C[C@@H](F)[C@H](C)N1S(=O)(=O)c1cc2cc(F)ccc2o1 [Example 117, (2S,4R,5S)-4-fluoro-1-(5-fluorobenzofuran-2-yl)sulfonyl-N-[[3-methoxy-1-[2-(trifluoromethyl)pyrimidin-5-yl]pyrazol-4-yl]methyl]-5-methyl-pyrrolidine-carboxamide] |
| 0.875 | C[C@H]1[C@H](F)C[C@@H](C(=O)NCc2cc(-c3cnc(C(F)(F)F)nc3)ncc2OC(F)(F)F)N1S(=O)(=O)c1ccc(F)cc1 [Example 105, (2S,4R,5S)-4-fluoro-1-(4-fluorophenyl)sulfonyl-5-methyl-N-[[5-(trifluoromethoxy)-2-[2-(trifluoromethyl)pyrimidin-5-yl]-4-pyridyl]methyl]pyrrolidine-2-carboxamide] |
| 0.836 | C[C@H]1[C@H](F)C[C@@H](C(=O)NCc2cc(-c3cnc(C(F)(F)F)nc3)ncc2C(F)(F)F)N1S(=O)(=O)c1ccc(F)c(F)c1 [Example 119, (2S,4R,5S)-1-(3,4-difluorophenyl)sulfonyl-4-fluoro-5-methyl-N-[[5-(trifluoromethyl)-2-[2-(trifluoromethyl)pyrimidin-5-yl]-4-pyridyl]methyl]pyrrolidine-2-carboxamide] |
| 0.777 | C[C@H]1[C@H](F)C[C@@H](C(=O)NCc2cc(-c3cnc(C(F)(F)F)nc3)ncc2C(F)(F)F)N1S(=O)(=O)c1ccc(F)cc1 [Example 103, (2S,4R,5S)-4-fluoro-1-(4-fluorophenylsulfonyl)-5-methyl-N-((5-(trifluoromethyl)-2-(2-(trifluoromethyl)pyrimidin-5-yl)pyridin-4-yl)methyl)pyrrolidine-2-carboxamide] |
| 0.682 | C[C@H]1[C@H](F)C[C@@H](C(=O)NCc2cc(-c3cnc(C(F)(F)F)nc3)nc(C3CC3)c2C#N)N1S(=O)(=O)c1ccc(F)cc1 [Example 104, (2S,4R,5S)—N-((3-cyano-2-cyclopropyl-6-(2-(trifluoromethyl)pyrimidin-5-yl)pyridin-4-yl)methyl)-4-fluoro-1-(4-fluorophenylsulfonyl)-5-methylpyrrolidine-2-carboxamide] |
| 0.545 | C[C@H]1[C@H](F)C[C@@H](C(=O)NCc2cc(-c3cnc(C(F)(F)F)nc3)ncc2F)N1S(=O)(=O)c1ccc(Cl)s1 [Example 101, (2S,4R,5S)-1-[(5-chloro-2-thienyl)sulfonyl]-4-fluoro-N-[[5-fluoro-2-[2-(trifluoromethyl)pyrimidin-5-yl]-4-pyridyl]methyl]-5-methyl-pyrrolidine-2-carboxamide] |
